Activity calls are given as the source filed them.
Experiments:
[1] = cells; format: functional, cell-based
[2] = cells; format: functional, cell-based; remark: listed apart in the source
[3] = target: T1, Calpain-2 catalytic subunit (Sus scrofa, UniProt P43367); assay: m-calpain protease blockers, concentration series – biochemical, fluorogenic peptide substrate, dose response (AID 1420); format: functional
T1 sequence (P43367 whole entry): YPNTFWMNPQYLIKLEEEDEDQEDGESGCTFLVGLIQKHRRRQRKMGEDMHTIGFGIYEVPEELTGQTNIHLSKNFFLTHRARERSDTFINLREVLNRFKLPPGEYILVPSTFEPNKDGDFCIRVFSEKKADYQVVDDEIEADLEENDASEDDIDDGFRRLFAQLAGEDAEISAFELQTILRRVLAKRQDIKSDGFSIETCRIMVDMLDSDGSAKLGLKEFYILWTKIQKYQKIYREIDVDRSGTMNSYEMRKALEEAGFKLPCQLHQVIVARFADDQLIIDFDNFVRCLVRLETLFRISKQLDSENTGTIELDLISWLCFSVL

[4] = system: BJ; assay: BJ-TERT fibroblast viability loss – cell-based, RAS-independent, luminescence, dose response (AID 1933); format: functional; details: Homo sapiens
[5] = system: BJ; assay: cells; format: functional, cell-based; details: Homo sapiens
[6] = system: BJ; assay: BJ-TERT-LT-ST fibroblast viability loss – cell-based, RAS-independent, luminescence, dose response (AID 1935); format: functional; details: Homo sapiens;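 further: BJ fibroblasts immortalized with TERT plus LT and ST oncogenes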
[7] = DRD fibroblast viability loss – cell-based, non-viral oncogenic, luminescence, dose response (AID 1934); format: functional; details: Homo sapiens
[8] = target: T2, Leucine aminopeptidase (Plasmodium falciparum 3D7, UniProt Q8IL11); assay: P. falciparum M17LAP inhibitors, primary screen, biochemical, fluorogenic H-Leu-NHMec substrate, 1536-well (AID 1619); format: functional
T2 sequence (Q8IL11 whole entry): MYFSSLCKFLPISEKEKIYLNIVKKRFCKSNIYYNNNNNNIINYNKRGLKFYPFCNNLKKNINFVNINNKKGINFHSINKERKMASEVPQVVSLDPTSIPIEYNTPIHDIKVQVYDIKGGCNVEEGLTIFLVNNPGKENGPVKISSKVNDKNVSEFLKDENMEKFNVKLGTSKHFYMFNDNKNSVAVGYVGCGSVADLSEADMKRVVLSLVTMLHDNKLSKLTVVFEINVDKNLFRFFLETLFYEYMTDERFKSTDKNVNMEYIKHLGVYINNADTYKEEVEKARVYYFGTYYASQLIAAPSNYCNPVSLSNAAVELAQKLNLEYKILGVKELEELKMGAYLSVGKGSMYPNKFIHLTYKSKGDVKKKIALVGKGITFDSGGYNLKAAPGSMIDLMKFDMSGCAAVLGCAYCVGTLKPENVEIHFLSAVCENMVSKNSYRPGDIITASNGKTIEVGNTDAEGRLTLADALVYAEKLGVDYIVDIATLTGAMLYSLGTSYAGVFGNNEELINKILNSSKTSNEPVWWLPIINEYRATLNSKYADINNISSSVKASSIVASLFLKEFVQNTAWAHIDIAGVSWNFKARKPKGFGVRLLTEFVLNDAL

[9] = NIH-3T3 fibroblast cytotoxicity, dose response, cytotoxicity control, cell-based, fluorescence, Alamar Blue, secondary assay (AID 2327); format: functional;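 further: NIH-3T3 mouse fibroblasts cultured with fluconazole at 8 µg/mL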
[10] = fluconazole-exposed Candida albicans growth modulators – fluorescence, retest, confirmation (AID 2467); format: functional, cell-based
[11] = target: T3, Rac GTPase-activating protein 1 (Homo sapiens, UniProt Q9H0H5); assay: blockers of MgcRacGAP-driven Rac1 GTP hydrolysis – biochemical, ADP Hunter fluorescence, primary and confirmatory, confirmation (AID 624330); format: functional
T3 sequence (Q9H0H5 whole entry): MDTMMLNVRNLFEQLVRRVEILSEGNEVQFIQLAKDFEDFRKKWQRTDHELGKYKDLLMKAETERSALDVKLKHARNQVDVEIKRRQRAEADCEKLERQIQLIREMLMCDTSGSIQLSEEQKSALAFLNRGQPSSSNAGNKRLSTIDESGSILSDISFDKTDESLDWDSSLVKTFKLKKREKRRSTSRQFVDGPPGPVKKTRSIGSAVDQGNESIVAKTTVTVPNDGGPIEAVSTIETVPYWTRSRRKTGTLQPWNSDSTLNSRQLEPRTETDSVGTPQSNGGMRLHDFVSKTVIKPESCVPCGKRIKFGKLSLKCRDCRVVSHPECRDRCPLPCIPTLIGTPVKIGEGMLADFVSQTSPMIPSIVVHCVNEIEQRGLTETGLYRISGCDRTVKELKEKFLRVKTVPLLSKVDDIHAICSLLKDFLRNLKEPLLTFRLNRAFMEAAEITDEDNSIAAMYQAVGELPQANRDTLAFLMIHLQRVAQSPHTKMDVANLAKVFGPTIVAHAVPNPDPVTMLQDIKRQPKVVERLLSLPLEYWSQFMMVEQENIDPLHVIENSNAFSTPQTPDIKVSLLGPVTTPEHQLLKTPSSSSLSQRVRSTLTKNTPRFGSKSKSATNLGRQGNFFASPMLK

[12] = THP-1 cell cytotoxicity, dose response, cytotoxicity control for non-replicating M. tuberculosis project (AID 489025); format: functional
[13] = Luminescence Cell-Based Dose Retest to Confirm Inhibitors of Cancer Stem Cells. [Related pubchem assays (depositor defined):AID2717, AID2721]; format: functional; details: Homo sapiens
[14] = target: T4, Heat shock factor protein 1 (Mus musculus, UniProt P38532); assay: enhancement of HSF1-driven luciferase signal – cell-based, NIH3T3, luminescence, dose retest, confirmation (AID 435004); format: functional;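 further: stress induced by proteasome inhibitor MG132 added 30 min after compound; luciferase reporter driven by HSF1 response element in NIH3T3 cells; actives raise luminescence as potentiators of the MG132 stress response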
T4 sequence (P38532 whole entry): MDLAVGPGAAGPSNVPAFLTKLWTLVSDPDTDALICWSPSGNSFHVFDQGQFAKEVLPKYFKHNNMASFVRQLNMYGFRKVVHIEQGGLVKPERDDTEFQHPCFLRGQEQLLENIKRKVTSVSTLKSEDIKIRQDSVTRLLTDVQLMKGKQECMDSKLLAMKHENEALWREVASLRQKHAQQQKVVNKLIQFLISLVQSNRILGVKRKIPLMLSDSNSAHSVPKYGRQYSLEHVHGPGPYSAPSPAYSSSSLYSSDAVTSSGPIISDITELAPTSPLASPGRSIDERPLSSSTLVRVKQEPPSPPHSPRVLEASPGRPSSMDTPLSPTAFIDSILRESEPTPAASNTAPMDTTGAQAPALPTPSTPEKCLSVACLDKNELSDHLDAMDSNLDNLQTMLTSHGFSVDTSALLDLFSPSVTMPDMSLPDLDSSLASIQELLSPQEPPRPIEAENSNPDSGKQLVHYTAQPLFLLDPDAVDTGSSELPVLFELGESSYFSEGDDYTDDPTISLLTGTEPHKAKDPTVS

[15] = target: Fatty acid synthase (Homo sapiens, UniProt P49327); assay: inhibition of human FAS-TE enzyme activity – biochemical, kinetic fluorescence intensity, dose response (AID 624326); format: functional;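 further: rate of fluorescence rise from hydrolysis of a fluorogenic O-methyl fluorescein ester substrate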
[16] = blockers of HIV-1 envelope-mediated cell-cell fusion – cherry-pick, dose response (AID 652057); format: functional, cell-based
[17] = blockers of HIV-1 ZM109 envelope-driven cell-cell fusion – HeLa effector, CEM target cells, luciferase, cherry-pick, dose response (AID 652058); format: functional, cell-based;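 further: luciferase signal from HIV-1 Env mediated cell-cell fusion of effector and target cells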
[18] = HIV-1 AD8 envelope cell-cell fusion blockers – cherry-pick, dose response (AID 652062); format: functional, cell-based;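 further: luciferase signal from cell-cell fusion driven by HIV-1 clade B AD8 Env; potency is for inhibitors of fusion seen as a drop in luminescence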

Chain of Fatty acid synthase (P49327 whole entry, the tested form may be a part): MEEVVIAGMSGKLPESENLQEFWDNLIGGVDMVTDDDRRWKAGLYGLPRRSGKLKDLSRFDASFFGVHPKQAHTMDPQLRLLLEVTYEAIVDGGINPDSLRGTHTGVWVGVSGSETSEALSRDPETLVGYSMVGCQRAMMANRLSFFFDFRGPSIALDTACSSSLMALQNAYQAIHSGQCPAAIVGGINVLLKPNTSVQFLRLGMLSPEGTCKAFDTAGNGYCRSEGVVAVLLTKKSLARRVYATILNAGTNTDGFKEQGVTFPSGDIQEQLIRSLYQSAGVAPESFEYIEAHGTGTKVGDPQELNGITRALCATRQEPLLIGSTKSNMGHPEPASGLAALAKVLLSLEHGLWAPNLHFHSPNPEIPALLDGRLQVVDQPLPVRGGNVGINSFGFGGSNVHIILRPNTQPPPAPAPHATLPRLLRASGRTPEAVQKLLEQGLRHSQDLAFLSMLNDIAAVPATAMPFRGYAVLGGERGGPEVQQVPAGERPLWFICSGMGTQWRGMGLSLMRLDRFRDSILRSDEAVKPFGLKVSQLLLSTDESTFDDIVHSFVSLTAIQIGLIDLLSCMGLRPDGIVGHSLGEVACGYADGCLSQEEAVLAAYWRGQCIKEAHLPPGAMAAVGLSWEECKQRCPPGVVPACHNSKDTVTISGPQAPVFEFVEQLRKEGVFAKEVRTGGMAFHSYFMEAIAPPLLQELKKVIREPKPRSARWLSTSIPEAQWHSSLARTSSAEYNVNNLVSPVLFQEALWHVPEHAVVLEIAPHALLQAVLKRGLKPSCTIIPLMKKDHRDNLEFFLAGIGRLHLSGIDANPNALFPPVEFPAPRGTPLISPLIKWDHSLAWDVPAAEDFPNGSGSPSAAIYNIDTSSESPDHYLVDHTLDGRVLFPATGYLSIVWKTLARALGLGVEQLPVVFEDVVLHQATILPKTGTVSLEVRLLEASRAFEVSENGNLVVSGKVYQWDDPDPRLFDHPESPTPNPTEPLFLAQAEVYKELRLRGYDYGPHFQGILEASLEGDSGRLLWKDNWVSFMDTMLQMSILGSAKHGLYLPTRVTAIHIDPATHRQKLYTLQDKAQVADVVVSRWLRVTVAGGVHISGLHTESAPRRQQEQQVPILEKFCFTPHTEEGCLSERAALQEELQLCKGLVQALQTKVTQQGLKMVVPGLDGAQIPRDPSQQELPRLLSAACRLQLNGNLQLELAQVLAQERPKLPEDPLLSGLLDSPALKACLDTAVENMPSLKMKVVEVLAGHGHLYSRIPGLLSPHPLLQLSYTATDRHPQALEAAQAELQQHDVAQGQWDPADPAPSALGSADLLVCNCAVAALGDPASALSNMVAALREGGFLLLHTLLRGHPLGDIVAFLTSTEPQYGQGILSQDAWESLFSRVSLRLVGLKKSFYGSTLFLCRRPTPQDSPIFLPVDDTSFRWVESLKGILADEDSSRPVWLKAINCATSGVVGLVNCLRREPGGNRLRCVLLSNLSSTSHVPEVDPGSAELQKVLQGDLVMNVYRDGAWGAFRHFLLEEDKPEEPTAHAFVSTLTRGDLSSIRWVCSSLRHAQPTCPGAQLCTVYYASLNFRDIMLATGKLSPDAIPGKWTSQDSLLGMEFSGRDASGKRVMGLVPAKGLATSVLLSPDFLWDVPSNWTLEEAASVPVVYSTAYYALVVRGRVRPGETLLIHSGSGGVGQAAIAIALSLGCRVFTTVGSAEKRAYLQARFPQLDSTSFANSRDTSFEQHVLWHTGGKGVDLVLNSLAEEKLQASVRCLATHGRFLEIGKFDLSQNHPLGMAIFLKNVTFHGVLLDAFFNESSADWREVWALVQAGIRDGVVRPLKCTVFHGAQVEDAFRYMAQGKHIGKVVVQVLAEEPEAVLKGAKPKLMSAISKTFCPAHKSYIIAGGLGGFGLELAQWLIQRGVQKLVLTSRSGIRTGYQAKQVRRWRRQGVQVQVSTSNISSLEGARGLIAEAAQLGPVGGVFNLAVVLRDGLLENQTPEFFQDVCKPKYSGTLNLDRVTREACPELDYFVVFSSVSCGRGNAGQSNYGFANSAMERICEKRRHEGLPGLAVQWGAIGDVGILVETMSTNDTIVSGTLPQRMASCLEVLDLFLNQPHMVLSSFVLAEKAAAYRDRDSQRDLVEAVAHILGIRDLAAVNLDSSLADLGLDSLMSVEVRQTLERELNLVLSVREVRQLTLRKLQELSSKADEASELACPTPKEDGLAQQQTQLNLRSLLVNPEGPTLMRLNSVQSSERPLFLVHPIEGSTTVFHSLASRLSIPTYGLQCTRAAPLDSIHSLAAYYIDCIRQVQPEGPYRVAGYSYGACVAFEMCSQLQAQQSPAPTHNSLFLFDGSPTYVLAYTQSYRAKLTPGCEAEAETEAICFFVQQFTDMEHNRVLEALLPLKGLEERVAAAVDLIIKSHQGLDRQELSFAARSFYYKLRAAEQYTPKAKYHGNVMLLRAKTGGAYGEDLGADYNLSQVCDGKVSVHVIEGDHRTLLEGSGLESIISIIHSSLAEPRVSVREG

Cc1cccc(N=C(S)N2CCC(N(C)CC3CCCO3)CC2)c1 (stereo not drawn)
EC50 [1]: > 350 µM (not active)
EC50 [2]: > 350 µM (not active)

Nn1c(Cc2cccc3ccccc23)nnc1SCc1ccc(Cl)c(Cl)c1
IC50 [3]: < 0.4 µM (not active)

Cc1cc2cc(CN=C(S)NC3CCCCC3)ccc2[nH]1
IC50 [3]: 34.6 µM (not active)

COc1ccc(-n2c(SCC(=O)Nc3ncc(Cl)cc3Cl)nc3ccccc32)cc1
EC50 [4]: 27.8 µM (active)
EC50 [5]: 139 µM (active)
EC50 [6]: > 150 µM (inconclusive)
EC50 [7]: 137 µM (active)

Cc1onc(-c2c(Cl)cccc2Cl)c1C(=O)N=C(N)N1CCCC1
EC50 [1]: > 350 µM (not active)
EC50 [2]: > 350 µM (not active)

CCC1(C)Cc2sc3c(=O)[nH]c(=S)[nH]c3c2CO1 (stereo not drawn)
IC50 [8]: 29.3 µM (active)

Cc1ccc2cc(CCNC(=O)c3cc4ccccc4o3)c(O)nc2c1C
IC50 [3]: > 50 µM (not active)

CCN1/C(=C\C=C2\C(=O)N(c3ccccc3)C(=S)N2C)Sc2ccccc21
IC50 [3]: > 50 µM (not active)

Brc1ccc(-c2nnc3sc(CN4CCN(c5ccccc5)CC4)cn23)cc1
EC50 [9]: > 150 µM (inactive)
EC50 [4]: > 150 µM (not active)
EC50 [5]: > 150 µM (not active)
EC50 [10]: 2.14 µM (active)
EC50 [6]: > 150 µM (not active)
EC50 [7]: > 150 µM (not active)

CCOc1ccc(Nc2nnc(S)s2)cc1
IC50 [8]: < 1 µM (active)
IC50 [11]: 54.8 µM (active)

CC(C)Cn1c(S)nnc1-c1csc(C(C)C)c1
IC50 [3]: 10.8 µM (active)

CSc1nc(Oc2ccccc2)c2sccc2n1
IC50 [3]: < 0.4 µM (not active)

CN1CCN(Cc2nc3ccccc3c(=O)n2Cc2nc(-c3ccccc3F)cs2)CC1
EC50 [1]: > 350 µM (not active)
EC50 [2]: 45.4 µM (active)

Nc1[nH]nc2nc(N3CCCC3)nc(-c3ccccc3)c12
IC50 [8]: 33.7 µM (active)

O=C(O)c1cnn2cc(-c3n[nH]cc3[N+](=O)[O-])cnc12
IC50 [8]: 13.3 µM (active)

CC(C)=CC1C(C(=O)Nc2ccc(Br)cn2)C1(C)C (stereo not drawn)
IC50 [3]: 6.34 µM (not active)
CC50 [12]: > 40 µM (active)

COc1ccc(/C=C(\C#N)c2c[nH]c3ccccc23)cc1
EC50 [4]: 0.706 µM (inconclusive)
EC50 [5]: 20 µM (inconclusive)
EC50 [6]: 1.76 µM (inconclusive)
EC50 [7]: 0.441 µM (active)
AC50 [13]: 0.203 µM (active)
EC50 [14]: 39.2 µM (active)

COc1ccc(-c2cc(C(=O)N3CCCc4ccccc43)no2)cc1
IC50 [3]: 13.4 µM (not active)

CCOc1ccc(CC(=O)OCn2nnc3ccccc3c2=O)cc1
IC50 [3]: 24.4 µM (not active)

CCN(CC)c1ccc(NC(=O)Cn2nnc(-c3cccc(OC)c3OC)n2)c(C)c1
IC50 [8]: < 1 µM (active)
EC50 [1]: > 350 µM (not active)
EC50 [2]: > 350 µM (not active)

CCCOc1ccc(N2C(=O)CC(SCCN)C2=O)cc1 (stereo not drawn)
IC50 [8]: 12 µM (active)

O=C(c1cc2ccccc2o1)N1CCN(Cc2ccc3c(c2)OCO3)CC1
EC50 [1]: > 350 µM (not active)
EC50 [2]: > 350 µM (not active)

CCc1ccc(NC(=O)c2noc(C(C)C)c2[N+](=O)[O-])cc1
IC50 [3]: 6.83 µM (not active)

Cc1noc(NS(=O)(=O)c2ccc(NC(=O)Nc3ccc(Cl)c(Cl)c3)cc2)c1C
IC50 [8]: 9.03 µM (active)

CCC(C)C(NC(=O)c1ccc(Cl)cc1)C(=O)Nc1cccnc1 (stereo not drawn)
IC50 [3]: 7.69 µM (not active)

O=C(Nc1cccc2ccccc12)/C(Cl)=C/c1ccccc1
IC50 [3]: 8.93 µM (not active)

O=C(CCCCCN1C(=O)c2ccccc2C1=O)Nc1ccc(F)cc1
IC50 [3]: 11.1 µM (not active)

O=C(CN1C(=O)C2C3C=CC(C3)C2C1=O)NCC1COc2ccccc2O1 (stereo not drawn)
IC50 [8]: 2.19 µM (active)

C=CCNC(=O)/C(=C/c1cn(-c2ccccc2)nc1-c1cccc([N+](=O)[O-])c1)NC(=O)c1ccccc1
EC50 [1]: > 350 µM (not active)
EC50 [2]: > 350 µM (not active)

O=C(Cc1ccc(N2CCNC2=O)cc1)N1CCCC(Nc2ccc(F)c(F)c2)C1 (stereo not drawn)
EC50 [4]: 9.17 µM (inconclusive)
EC50 [5]: 3.98 µM (active)
EC50 [6]: 4.14 µM (active)
EC50 [7]: 14.9 µM (inconclusive)

O=C1OC(c2cccc([N+](=O)[O-])c2)C2(CCCC2)C(=O)C12CCCCC2 (stereo not drawn)
IC50 [3]: > 50 µM (not active)

CN1C2CCC1/C(=C/c1cccn1C)C(=O)/C2=C\c1cccn1C
IC50 [8]: 51.9 µM (active)

CCCc1nc2ccccc2c(=O)n1/N=C/c1ccccc1O
EC50 [1]: > 350 µM (not active)
EC50 [2]: > 350 µM (not active)

CNS(=O)(=O)c1ccc2c(c1)C(=O)c1cc(S(=O)(=O)NC)ccc1CC2
IC50 [15]: 0.865 µM (active)

C[C@@H]1CN([C@H](C)CO)S(=O)(=O)c2ccc(-c3cccc(F)c3)cc2O[C@@H]1CN(C)S(=O)(=O)c1ccccc1
AC50 [16]: 3.28 µM (active)
AC50 [17]: 2.78 µM (active)
AC50 [18]: 31.6 µM (active)

C[C@H]1CN([C@@H](C)CO)S(=O)(=O)c2ccc(Br)cc2O[C@H]1CN(C)S(=O)(=O)c1ccc(F)cc1
AC50 [16]: 2.84 µM (active)
AC50 [17]: 3.04 µM (active)
AC50 [18]: 29.7 µM (active)

CO[C@H]1CN(C)C(=O)c2ccc(NC(=O)C3CCC3)cc2OC[C@@H](C)N(CC2CCCCC2)C[C@@H]1C
AC50 [16]: 10.1 µM (active)
AC50 [17]: 3.18 µM (active)
AC50 [18]: 19.9 µM (active)

COc1ccc(C/C(C)=N/NS(=O)(=O)c2ccc(Br)cc2)cc1
EC50 [1]: > 350 µM (not active)
EC50 [2]: > 350 µM (not active)

COc1cccc(N/N=C(\C#N)S(=O)(=O)C(C)(C)C)c1
IC50 [8]: 26.7 µM (active)

CC1=NNC(=O)C1CCC(=O)N/N=C\c1cccc(Cl)c1 (stereo not drawn)
IC50 [8]: 20.9 µM (active)

— ChEMBL document CHEMBL1201862, “PubChem BioAssay data set” (2004)
